From publication PMC11002876, “KcsA-Kv1.x chimeras with complete ligand-binding sites provide improved predictivity for screening selective Kv1.x blockers” (The Journal of Biological Chemistry, 2024)
Where a SMILES comes first, the peptide text is derived from it.

Biological target: T1, KcsA-Kv1.1 T+F chimera (Streptomyces lividans, UniProt P0A334, R52A/G53E/A54E/P55A/G56E/A57S/Q58H/L59F/I60S/T61S/Y62I/R64D/L81M)
T1 sequence (P0A334 1-160 R52A/G53E/A54E/P55A/G56E/A57S/Q58H/L59F/I60S/T61S/Y62I/R64D/L81M): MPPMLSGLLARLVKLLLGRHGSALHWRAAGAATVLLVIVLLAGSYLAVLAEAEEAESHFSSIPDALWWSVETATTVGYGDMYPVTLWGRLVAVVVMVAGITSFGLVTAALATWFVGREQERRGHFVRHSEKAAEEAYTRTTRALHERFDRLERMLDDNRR
Test: Phage ELISA-binding assay, KcsA-Kv1.1 T+F
Set-up: species or system human Kv1.1 turret and filter in Streptomyces lividans KcsA
Conditions: toxin displayed on M13 phage; Fig. 8D
Description: Phage display test solutions were prepared according to routine phage display protocols ([62]). Phosphorylated and annealed oligonucleotides encoding the peptide construct were ligated into linearized pAS62 phagemid vector (https://patents.google.com/patent/WO2022144560A1/en) at a vector/insert ratio of 1:3. The final phagemid construct harbored a signal sequence followed by the peptide of interest, a linker sequence ([…]), and the C-terminal part of the P3 coat protein (amino acids: 216-424 of NP_510891.1). Chemically competent XL1-Blue E. coli cells (2022249, Agilent) were transformed with the ligation product and then streaked onto ampicillin (100 μg/ml) containing LB/Amp plates and incubated for 16 h at 37 °C. A few clones were sequenced, and a single colony with confirmed target sequence was inoculated into 3 ml 2 YT medium supplemented with 100 μg/ml ampicillin and incubated at 37 °C until the culture reached midlog phase. The culture was infected with M13KO7 helper phage (N0315S, New England Biolabs) (phage/cell ratio 10:1) and was incubated for 30 min at 37 °C. The 3 ml culture was transferred into 200 ml 2YT medium, supplemented with 100 μg/ml ampicillin and 25 μg/ml kanamycin, and incubated overnight at 37 °C. The overnight cell culture (200 ml) was pelleted by centrifugation at 8000g for 10 min in 400 ml centrifuge tubes at 4 °C. […] The particle concentrations of phage solutions were determined using a NanoDrop One C (Thermo Fisher Scientific) spectrophotometer. The phage particle concentration was assessed according to the formula: (A268–A320) × 5 × 10^12 particles/ml ([62]). […]
Phage stock solutions were diluted to working concentration with phage resuspension buffer supplemented with 2 mM DDM. […] Following blocking, the wells were washed 4× with washing buffer (300 μl TBS-Tween, 0.1% v/v) using a Wellwash Versa microplate washer (Thermo Fisher Scientific); then 50 μl phage solution (in TBS-BSA-Tween, 0.1% v/v, 2 mM DDM) at determined phage concentration was added to the wells and incubated for 1 h at room temperature on a horizontal shaker. […]

SMILES	phage binding to KcsA-Kv1.1 T+F, in words
CC[C@H](C)[C@H](NC(=O)[C@H](CCC(=O)O)NC(=O)[C@@H](NC(=O)CN)C(C)C)C(=O)N[C@@H](CC(N)=O)C(=O)N[C@H](C(=O)N[C@@H](CCCCN)C(=O)N[C@H]1CSSC[C@@H]2NC(=O)[C@H](CCCCN)NC(=O)CNC(=O)[C@H](Cc3ccccc3)NC(=O)[C@H](CCCNC(=N)N)NC(=O)[C@H](CCSC)NC(=O)CNC(=O)[C@H](C)NC(=O)[C@H](CC(=O)O)NC(=O)[C@H](CCCCN)NC(=O)[C@@H]3CSSC[C@@H](C(=O)N[C@H](C(=O)N4CCC[C@H]4C(=O)N[C@@H](CCCCN)C(=O)O)[C@@H](C)O)NC(=O)[C@H](Cc4c[nH]cn4)NC(=O)[C@H](CSSC[C@H](NC(=O)[C@H](CCC(N)=O)NC(=O)[C@@H]4CCCN4C(=O)[C@H](CO)NC(=O)CNC(=O)[C@H](CO)NC1=O)C(=O)N[C@@H](CC(C)C)C(=O)N[C@@H](CCCCN)C(=O)N1CCC[C@H]1C(=O)N3)NC(=O)[C@H](CCCCN)NC(=O)[C@H](CCCNC(=N)N)NC(=O)[C@H](CC(N)=O)NC(=O)[C@H](CCSC)NC2=O)C(C)C [KTX1, Kaliotoxin-1]	ShK > KTX1
CC[C@H](C)[C@@H]1NC(=O)[C@@H]2CSSC[C@H](NC(=O)[C@H](CO)NC(=O)[C@@H](N)C(C)C)C(=O)N[C@@H]([C@@H](C)O)C(=O)NCC(=O)N[C@@H](CO)C(=O)N[C@@H](CCCCN)C(=O)N[C@@H](CC(=O)O)C(=O)N[C@@H](CSSC[C@@H](C(=O)N[C@@H](CCCCN)C(=O)N[C@H]3CSSC[C@@H](C(N)=O)NC(=O)CNC(=O)[C@H](Cc4ccc(O)cc4)NC3=O)NC(=O)[C@H](CO)NC(=O)[C@H](CCCCN)NC(=O)[C@H](CC(N)=O)NC1=O)C(=O)N[C@@H](Cc1ccc(O)cc1)C(=O)N[C@@H](C)C(=O)N1CCC[C@H]1C(=O)N[C@H]1CSSC[C@H](NC(=O)CNC(=O)[C@H]([C@@H](C)O)NC(=O)[C@H](CCC(N)=O)NC(=O)[C@H](CCCCN)NC(=O)[C@H](CCCNC(=N)N)NC1=O)C(=O)N1CCC[C@H]1C(=O)N[C@@H](CC(N)=O)C(=O)N[C@@H](C)C(=O)N[C@@H](CCCCN)C(=O)N2 [MTX, Maurotoxin] (HELM PEPTIDE1{V.S.C.T.G.S.K.D.C.Y.A.P.C.R.K.Q.T.G.C.P.N.A.K.C.I.N.K.S.C.K.C.Y.G.C.[am]}$PEPTIDE1,PEPTIDE1,3:R3-24:R3|PEPTIDE1,PEPTIDE1,9:R3-29:R3|PEPTIDE1,PEPTIDE1,13:R3-19:R3|PEPTIDE1,PEPTIDE1,31:R3-34:R3$$$V2.0; N-terminus and C-terminus assumed)	negligible binding
CC[C@H](C)[C@@H]1NC(=O)[C@@H](NC(=O)[C@H](CO)NC(=O)[C@@H](N)CCCNC(=N)N)CSSC[C@@H](C(=O)O)NC(=O)[C@H]([C@@H](C)O)NC(=O)CNC(=O)[C@@H]2CSSC[C@@H]3NC(=O)[C@H](CCC(N)=O)NC(=O)[C@H](Cc4ccccc4)NC(=O)[C@H](C)NC(=O)[C@H]([C@@H](C)O)NC(=O)[C@H](CSSC[C@H](NC(=O)[C@H](Cc4ccccc4)NC(=O)[C@H](CO)NC(=O)[C@H](CC(C)C)NC(=O)[C@H](CCCNC(=N)N)NC(=O)[C@H](Cc4ccc(O)cc4)NC(=O)[C@H](CCCCN)NC(=O)[C@H](CCSC)NC(=O)[C@H](CO)NC(=O)[C@H](Cc4c[nH]cn4)NC(=O)[C@H](CCCCN)NC3=O)C(=O)N[C@@H](CCCNC(=N)N)C(=O)N[C@@H](CCCCN)C(=O)N[C@@H]([C@@H](C)O)C(=O)N2)NC(=O)[C@H](CCCNC(=N)N)NC(=O)[C@H](CO)NC(=O)[C@H](CCCCN)NC(=O)[C@@H]2CCCN2C(=O)[C@H]([C@@H](C)CC)NC(=O)[C@H]([C@@H](C)O)NC(=O)[C@H](CC(=O)O)NC1=O [ShK, Stichodactyla toxin]	ShK > KTX1
